Data published in US10399940B2, “Substituted pyrrolidines and methods of use” (AbbVie S.à.r.l., priority 2016, dated 2019).
Where two headings read alike, the source gives them in different places.

Molecular target: T1, F508delCFTR (Homo sapiens, UniProt P13569, DEL508-508)
T1 construct: expressed in transfected cells; host or cells: CFBE41o- (human lung derived epithelial cell line), doxycycline-inducible expression
Assay: Cell Surface Expression-Horse Radish Peroxidase (CSE-HRP) assay
Format: cell-based
Settings: CFBE41o-F508delCFTR-HRP cells; for Maximum % activity (with co-corrector): with co-corrector (2 μM); for Maximum % activity (with co-corrector) / Maximum % activity (without co-corrector): normalized to on-plate positive control, highest concentration 20 μM
Procedure, shortened: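 Surface F508delCFTR-HRP was read by luminol luminescence after 18–24 h compound exposure at 33 °C, without or with 2 μM co-corrector. Doses were eight 3-fold steps from 20 μM, in doxycycline-induced (0.5 μg/mL, 72 h) CFBE41o- cells. % activity was scaled to the on-plate 2 μM positive control minus DMSO; EC50 came from a variable-slope sigmoid fit.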

[1] = test compound without co-corrector, 18-24 hours at 33° C., read-out: EC50 (without co-corrector)
[2] = with co-corrector (2 μM of 3-[(2R,4R)-4-({[1-(2,2-difluoro-1,3-benzodioxol-5-yl)cyclopropyl]carbonyl}amino)-7-methoxy-3,4-dihydro-2H-chromen-2-yl]benzoic acid), read-out: EC50 (with co-corrector)

T1 sequence (P13569 with tags, fused parts or gaps DEL508-508): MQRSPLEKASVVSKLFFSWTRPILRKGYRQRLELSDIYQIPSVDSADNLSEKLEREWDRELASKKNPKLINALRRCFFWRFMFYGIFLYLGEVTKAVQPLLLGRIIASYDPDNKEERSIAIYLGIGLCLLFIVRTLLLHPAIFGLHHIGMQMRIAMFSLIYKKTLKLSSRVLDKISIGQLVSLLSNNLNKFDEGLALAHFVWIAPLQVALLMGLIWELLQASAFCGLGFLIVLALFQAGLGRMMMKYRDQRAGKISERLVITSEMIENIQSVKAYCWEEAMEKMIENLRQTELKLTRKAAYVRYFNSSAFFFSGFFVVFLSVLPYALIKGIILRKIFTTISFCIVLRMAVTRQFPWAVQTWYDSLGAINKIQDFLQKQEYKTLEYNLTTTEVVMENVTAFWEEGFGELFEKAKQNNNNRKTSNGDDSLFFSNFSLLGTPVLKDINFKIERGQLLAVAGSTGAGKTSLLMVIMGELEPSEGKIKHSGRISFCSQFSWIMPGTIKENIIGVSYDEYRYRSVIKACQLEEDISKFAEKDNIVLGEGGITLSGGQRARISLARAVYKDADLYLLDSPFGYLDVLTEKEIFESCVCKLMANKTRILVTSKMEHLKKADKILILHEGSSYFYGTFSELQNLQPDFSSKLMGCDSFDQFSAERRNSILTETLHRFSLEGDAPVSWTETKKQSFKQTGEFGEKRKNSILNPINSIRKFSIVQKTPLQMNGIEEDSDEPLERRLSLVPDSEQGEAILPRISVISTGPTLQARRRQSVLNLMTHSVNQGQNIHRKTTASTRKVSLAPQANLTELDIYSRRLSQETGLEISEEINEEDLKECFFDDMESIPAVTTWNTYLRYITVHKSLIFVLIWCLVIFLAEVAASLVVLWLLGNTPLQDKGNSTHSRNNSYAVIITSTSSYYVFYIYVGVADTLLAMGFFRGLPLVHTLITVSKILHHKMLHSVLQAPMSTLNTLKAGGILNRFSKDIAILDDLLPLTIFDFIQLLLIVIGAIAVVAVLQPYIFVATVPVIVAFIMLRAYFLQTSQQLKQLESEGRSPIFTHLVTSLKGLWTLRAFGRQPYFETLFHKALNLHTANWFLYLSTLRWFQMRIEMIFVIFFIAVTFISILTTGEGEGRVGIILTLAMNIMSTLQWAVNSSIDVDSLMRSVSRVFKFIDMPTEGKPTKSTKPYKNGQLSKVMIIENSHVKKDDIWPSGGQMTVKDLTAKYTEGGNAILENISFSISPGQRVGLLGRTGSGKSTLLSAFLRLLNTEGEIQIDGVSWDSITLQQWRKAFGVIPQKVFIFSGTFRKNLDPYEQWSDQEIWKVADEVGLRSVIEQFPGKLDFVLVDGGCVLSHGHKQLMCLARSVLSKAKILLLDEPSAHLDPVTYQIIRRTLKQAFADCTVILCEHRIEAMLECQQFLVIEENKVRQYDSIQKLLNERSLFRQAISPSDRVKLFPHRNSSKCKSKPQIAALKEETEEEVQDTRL

| SMILES | EC50 [1] [nM] | EC50 [2] [nM] | Maximum % activity (with co-corrector) | Maximum % activity (without co-corrector) |
| --- | --- | --- | --- | --- |
| COc1nc2cc(C)cc(C)c2cc1CO[C@H]1[C@H](C(C)(C)C)[C@@H](C(=O)O)N(C(=O)C2CCCCC2)[C@H]1c1cccnc1OC(C)C [Example 252, (2S,3R,4S,5S)-3-tert-butyl-1-(cyclohexanecarbonyl)-4-[(2-methoxy-5,7-dimethylquinolin-3-yl)methoxy]-5-{2-[(propan-2-yl)oxy]pyridin-3-yl}pyrrolidine-2-carboxylic acid] | 1000 to 10000 | 1000 to 10000 | +++ (≥350) | +++ (≥200) |
| COc1nc2cc(C)cc(C)c2cc1CO[C@H]1[C@H](C(C)(C)C)[C@@H](C(=O)O)N(C(=O)OC(C)C)[C@H]1c1cccnc1OC(C)C [Example 253, (2S,3R,4S,5S)-3-tert-butyl-4-[(2-methoxy-5,7-dimethylquinolin-3-yl)methoxy]-1-{[(propan-2-yl)oxy]carbonyl}-5-{2-[(propan-2-yl)oxy]pyridin-3-yl}pyrrolidine-2-carboxylic acid] | 1000 to 10000 | 1000 to 10000 | +++ (≥350) | +++ (≥200) |
| CCc1ccccc1[C@H]1[C@@H](OCc2cc3ccccc3nc2OC)[C@H](C(C)(C)C)[C@@H](C(=O)O)N1C(=O)[C@@H]1CCCCO1 [Example 254, (2S,3R,4S,5S)-3-tert-butyl-5-(2-ethylphenyl)-4-[(2-methoxyquinolin-3-yl)methoxy]-1-[(2S)-oxane-2-carbonyl]pyrrolidine-2-carboxylic acid] | 1000 to 10000 | < 1000 | +++ (≥350) | +++ (≥200) |
| Cc1ccccc1[C@H]1[C@@H](OCc2nc3ccccc3n2C)[C@H](C(C)(C)C)[C@@H](C(=O)O)N1C(=O)[C@@H]1CCCCO1 [Example 255, (2S,3R,4S,5S)-3-tert-butyl-4-[(1-methyl-1H-benzimidazol-2-yl)methoxy]-5-(2-methylphenyl)-1-[(2S)-oxane-2-carbonyl]pyrrolidine-2-carboxylic acid] | > 10000 | 1000 to 10000 | ++ (≥150 and <350) | + (<100) |
| COc1ncc(C2CCC2)cc1CO[C@H]1[C@H](C(C)(C)C)[C@@H](C(=O)O)N(C(=O)C2CCCCC2)[C@H]1c1cccc2c1OC(C)(C)C2 [Example 256, (2S,3R,4S,5S)-3-tert-butyl-4-[(5-cyclobutyl-2-methoxypyridin-3-yl)methoxy]-1-(cyclohexanecarbonyl)-5-(2,2-dimethyl-2,3-dihydro-1-benzofuran-7-yl)pyrrolidine-2-carboxylic acid] | 1000 to 10000 | < 1000 | +++ (≥350) | + (<100) |
| COc1ncc(C(F)(F)F)cc1CO[C@H]1[C@H](C(C)(C)C)[C@@H](C(=O)O)N(C(=O)C2CCCCC2)[C@H]1c1cccc2c1OC(C)(C)C2 [Example 257, (2S,3R,4S,5S)-3-tert-butyl-1-(cyclohexanecarbonyl)-5-(2,2-dimethyl-2,3-dihydro-1-benzofuran-7-yl)-4-{[2-methoxy-5-(trifluoromethyl)pyridin-3-yl]methoxy}pyrrolidine-2-carboxylic acid] | < 1000 | < 1000 | ++ (≥150 and <350) | + (<100) |
| COc1ncc(C(F)(F)F)cc1CO[C@H]1[C@H](C(C)(C)OC)[C@@H](C(=O)O)N(C(=O)C2CCCCC2)[C@H]1c1ccccc1C(C)C [Example 258, (2S,3R,4S,5S)-1-(cyclohexanecarbonyl)-3-(2-methoxypropan-2-yl)-4-{[2-methoxy-5-(trifluoromethyl)pyridin-3-yl]methoxy}-5-[2-(propan-2-yl)phenyl]pyrrolidine-2-carboxylic acid] | < 1000 | < 1000 | +++ (≥350) | +++ (≥200) |
| COc1ncc(C(F)(F)F)cc1CO[C@H]1[C@H](C(C)(C)OC)[C@@H](C(=O)O)N(C(=O)OC(C)C)[C@H]1c1ccccc1C(C)C [Example 259, (2S,3R,4S,5S)-3-(2-methoxypropan-2-yl)-4-{[2-methoxy-5-(trifluoromethyl)pyridin-3-yl]methoxy}-1-{[(propan-2-yl)oxy]carbonyl}-5-[2-(propan-2-yl)phenyl]pyrrolidine-2-carboxylic acid] | < 1000 | < 1000 | +++ (≥350) | +++ (≥200) |
| COc1ncc(C(F)(F)F)cc1CO[C@H]1[C@H](C(C)(C)OC)[C@@H](C(=O)O)N(C(=O)[C@@H]2CCCCO2)[C@H]1c1ccccc1C(C)C [Example 260, (2S,3R,4S,5S)-3-(2-methoxypropan-2-yl)-4-{[2-methoxy-5-(trifluoromethyl)pyridin-3-yl]methoxy}-1-[(2S)-oxane-2-carbonyl]-5-[2-(propan-2-yl)phenyl]pyrrolidine-2-carboxylic acid] | < 1000 | < 1000 | +++ (≥350) | +++ (≥200) |
| COc1ccc(C(F)(F)F)cc1C(C)CO[C@H]1[C@H](C(C)(C)C)[C@@H](C(=O)O)N(C(=O)[C@@H]2CCCCO2)[C@H]1c1ccccc1C (stereo partly drawn) [Example 261, (2S,3R,4S,5S)-3-tert-butyl-4-{2-[2-methoxy-5-(trifluoromethyl)phenyl]propoxy}-5-(2-methylphenyl)-1-[(2S)-oxane-2-carbonyl]pyrrolidine-2-carboxylic acid] | 1000 to 10000 | < 1000 | +++ (≥350) | +++ (≥200) |
| COc1ccc(C(F)(F)F)cc1[C@](O)(CO)CO[C@H]1[C@H](C(C)(C)C)[C@@H](C(=O)O)N(C(=O)[C@@H]2CCCCO2)[C@H]1c1ccccc1C [Example 262, (2S,3R,4S,5S)-3-tert-butyl-4-{(2S)-2,3-dihydroxy-2-[2-methoxy-5-(trifluoromethyl)phenyl]propoxy}-5-(2-methylphenyl)-1-[(2S)-oxane-2-carbonyl]pyrrolidine-2-carboxylic acid] | 1000 to 10000 | 1000 to 10000 | ++ (≥150 and <350) | + (<100) |
| COc1ccc(C(F)(F)F)cc1[C@@](O)(CO)CO[C@H]1[C@H](C(C)(C)C)[C@@H](C(=O)O)N(C(=O)[C@@H]2CCCCO2)[C@H]1c1ccccc1C [Example 263, (2S,3R,4S,5S)-3-tert-butyl-4-{(2R)-2,3-dihydroxy-2-[2-methoxy-5-(trifluoromethyl)phenyl]propoxy}-5-(2-methylphenyl)-1-[(2S)-oxane-2-carbonyl]pyrrolidine-2-carboxylic acid] | > 10000 | 1000 to 10000 | ++ (≥150 and <350) | + (<100) |
| COc1ccc(C(F)(F)F)cc1C(=O)CO[C@H]1[C@H](C(C)(C)C)[C@@H](C(=O)O)N(C(=O)[C@@H]2CCCCO2)[C@H]1c1ccccc1C [Example 264, (2S,3R,4S,5S)-3-tert-butyl-4-{2-[2-methoxy-5-(trifluoromethyl)phenyl]-2-oxoethoxy}-5-(2-methylphenyl)-1-[(2S)-oxane-2-carbonyl]pyrrolidine-2-carboxylic acid] | 1000 to 10000 | 1000 to 10000 | +++ (≥350) | + (<100) |
| COc1ncc(C2CCC2)cc1CO[C@H]1[C@H](C(C)(C)C)[C@@H](C(=O)O)N(C(=O)OC(C)C(F)(F)F)[C@H]1c1cccnc1OC(C)C (stereo partly drawn) [Example 265, (2S,3R,4S,5S)-3-tert-butyl-4-[(5-cyclobutyl-2-methoxypyridin-3-yl)methoxy]-5-{2-[(propan-2-yl)oxy]pyridin-3-yl}-1-{[(1,1,1-trifluoropropan-2-yl)oxy]carbonyl}pyrrolidine-2-carboxylic acid] | < 1000 | < 1000 | +++ (≥350) | ++ (≥100 and <200) |
| COc1ncc(C2CCC2)cc1CO[C@H]1[C@H](C(C)(C)C)[C@@H](C(=O)O)N(C(=O)O[C@H](C)C(F)(F)F)[C@H]1c1cccnc1OC(C)C [Example 266, (2S,3R,4S,5S)-3-tert-butyl-4-[(5-cyclobutyl-2-methoxypyridin-3-yl)methoxy]-5-{2-[(propan-2-yl)oxy]pyridin-3-yl}-1-({[(2R)-1,1,1-trifluoropropan-2-yl]oxy}carbonyl)pyrrolidine-2-carboxylic acid] | 1000 to 10000 | < 1000 | +++ (≥350) | ++ (≥100 and <200) |
| COc1ncc(C2CCC2)cc1CO[C@H]1[C@H](C(C)(C)C)[C@@H](C(=O)O)N(C(=O)O[C@@H](C)C(F)(F)F)[C@H]1c1cccnc1OC(C)C [Example 267, (2S,3R,4S,5S)-3-tert-butyl-4-[(5-cyclobutyl-2-methoxypyridin-3-yl)methoxy]-5-{2-[(propan-2-yl)oxy]pyridin-3-yl}-1-({[(2S)-1,1,1-trifluoropropan-2-yl]oxy}carbonyl)pyrrolidine-2-carboxylic acid] | 1000 to 10000 | < 1000 | +++ (≥350) | ++ (≥100 and <200) |
